How the values were obtained:
[1] = biological target: T1, Thioredoxin reductase 1, cytoplasmic (Homo sapiens, UniProt Q16881); test: (§1) Inhibition of Recombinant TrxR1: Small molecule inhibition of recombinant thioredoxin reductase 1 (TrxR1) and gluthathione reductase (GR) was examined in 96-well plate format. 30 nM TrxR1 was incubated in the presence of 250 μM NADPH, 0.1 mg/ml BSA, and various concentrations of compound (1% DMSO final) in 50 mM Tris (pH 7.5) and 2 mM EDTA buffer for 15 minutes. Following the incubation period, 2 mM DTNB was added to each well and the change in O.D. at 412 nm was followed. Percent activity was determined using DMSO vehicle and no TrxR1 (blank) controls. 2 nM GR was incubated in the presence of 250 μM NADPH, 0.1 mg/ml BSA, and various concentrations of compounds (1% DMSO final) in 50 mM Tris (pH 7.5) and 2 mM EDTA buffer for 15 minutes. Following the incubation period, 1 mM GSSG was added to each well and the change in O.D. at 340 nm was followed. Percent activity was determined using DMSO vehicle and no GR (blank) controls.
T1 sequence (Q16881 whole entry): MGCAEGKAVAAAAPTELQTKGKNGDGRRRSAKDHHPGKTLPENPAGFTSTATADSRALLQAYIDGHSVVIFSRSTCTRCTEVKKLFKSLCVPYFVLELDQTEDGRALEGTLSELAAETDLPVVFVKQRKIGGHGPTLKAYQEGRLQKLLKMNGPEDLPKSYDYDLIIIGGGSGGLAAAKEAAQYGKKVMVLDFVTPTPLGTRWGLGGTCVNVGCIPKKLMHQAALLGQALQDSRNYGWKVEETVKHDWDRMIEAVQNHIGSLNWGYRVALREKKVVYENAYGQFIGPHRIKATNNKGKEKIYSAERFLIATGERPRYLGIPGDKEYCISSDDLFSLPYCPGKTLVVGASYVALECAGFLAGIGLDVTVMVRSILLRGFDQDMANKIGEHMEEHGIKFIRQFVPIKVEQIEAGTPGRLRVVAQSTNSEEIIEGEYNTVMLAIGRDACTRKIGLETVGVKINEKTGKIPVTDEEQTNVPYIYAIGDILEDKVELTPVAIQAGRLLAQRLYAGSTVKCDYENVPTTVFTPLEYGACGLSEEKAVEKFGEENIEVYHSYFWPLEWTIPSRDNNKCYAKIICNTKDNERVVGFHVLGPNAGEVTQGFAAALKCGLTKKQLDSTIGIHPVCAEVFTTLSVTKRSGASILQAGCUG

[2] = biological target: T2, Glutathione reductase, mitochondrial (Homo sapiens, UniProt P00390); test: as §1
T2 sequence (P00390 whole entry): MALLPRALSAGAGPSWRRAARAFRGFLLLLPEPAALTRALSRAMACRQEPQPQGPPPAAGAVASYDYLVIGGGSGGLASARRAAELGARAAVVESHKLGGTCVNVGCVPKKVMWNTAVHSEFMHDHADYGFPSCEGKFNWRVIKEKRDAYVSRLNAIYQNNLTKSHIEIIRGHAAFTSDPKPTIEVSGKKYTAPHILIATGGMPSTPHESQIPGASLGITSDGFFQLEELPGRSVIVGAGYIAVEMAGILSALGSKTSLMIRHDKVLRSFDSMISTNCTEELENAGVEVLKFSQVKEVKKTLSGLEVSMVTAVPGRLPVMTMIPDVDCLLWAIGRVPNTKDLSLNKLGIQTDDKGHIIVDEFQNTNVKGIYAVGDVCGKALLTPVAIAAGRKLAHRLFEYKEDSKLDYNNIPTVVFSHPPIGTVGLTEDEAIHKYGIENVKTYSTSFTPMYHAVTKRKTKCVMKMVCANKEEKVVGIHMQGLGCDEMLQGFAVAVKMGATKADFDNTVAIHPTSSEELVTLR

Molecule `CN(C)c1ccc([N+](=O)[O-])c(S(=O)(=O)Cc2ccccc2)n1` has an IC50 [1] of 276 nM and an IC50 [2] of over 100000 nM.
